Assay results from patent US9517265B2, “Methods for the prevention and/or treatment of memory impairment” (The Governing Council of the University of Toronto, priority 2010, dated 2016).
Entries after “also recorded” stand apart in the source; their conditions may differ.

Experiments:
α5GABAARs = α5GABAARs (Mus musculus, UniProt P22723+Q8BHJ7); experiment: Fear conditioning after IL-1β or LPS injection; type: in vivo, mice
Protocol: Pavlovian fear-conditioning tasks were used for behavioral analysis^29. LPS (125 μg kg^−1, i.p., with physiological saline as the vehicle control) or IL-1β (1 μg kg^−1, i.p., with 0.1% bovine serum albumin as the vehicle control) was injected into male 3- to 4-month-old WT and Gabra5−/− mice 3 h before conditioning. The intensity of the electric footshock was 0.5 mA. For some mice, the inverse agonist L-655,708 (0.35 or 0.5 mg kg^−1, i.p.) or vehicle control (10% DMSO, i.p.) was injected 30 min before training. The movement of the mouse was monitored. The percentage of time that each mouse spent in a freezing position was determined using FreezeView software (Version 2.26, Actimetrics Inc, Wilmette, Ill., USA).
We have determined that IL-1β-induced impairment of contextual fear memory can be reversed by pharmacological inhibition of α5GABAA receptors by the inverse agonist MRK-016. Fear conditioning was performed 3 h after injection of IL-1β (1 μg kg^−1, i.p.) in both wild-type (WT) and α5GABAA receptor knock out (Gabra5−/−) mice. Mice were trained to associate a context (contextual fear) and a tone (cued fear) with an aversive electric footshock. 24 h after conditioning each mouse was placed in the training context, and contextual fear memory was measured as the percentage of time spent freezing. Cued fear memory was measured 48 h after training as the percentage of time spent freezing to the conditioned auditory tone in a novel context.

α5GABAA receptors = target: T1, α5GABAA receptors (Homo sapiens, UniProt P18507+P31644); conditions: cited from earlier work
T1 sequence (P31644 32-462): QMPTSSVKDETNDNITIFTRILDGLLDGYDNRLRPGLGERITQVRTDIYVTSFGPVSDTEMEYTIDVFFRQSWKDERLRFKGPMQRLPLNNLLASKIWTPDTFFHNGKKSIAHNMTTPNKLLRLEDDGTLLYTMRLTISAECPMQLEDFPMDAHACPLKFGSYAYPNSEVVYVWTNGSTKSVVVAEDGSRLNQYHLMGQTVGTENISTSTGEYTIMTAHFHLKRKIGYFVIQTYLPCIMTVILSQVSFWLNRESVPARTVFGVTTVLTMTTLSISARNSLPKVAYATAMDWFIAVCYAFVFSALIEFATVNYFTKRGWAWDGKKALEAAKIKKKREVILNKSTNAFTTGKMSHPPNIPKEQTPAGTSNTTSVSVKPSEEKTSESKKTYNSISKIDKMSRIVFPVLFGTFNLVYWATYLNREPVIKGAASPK
T1 sequence (P28472 26-473 partner): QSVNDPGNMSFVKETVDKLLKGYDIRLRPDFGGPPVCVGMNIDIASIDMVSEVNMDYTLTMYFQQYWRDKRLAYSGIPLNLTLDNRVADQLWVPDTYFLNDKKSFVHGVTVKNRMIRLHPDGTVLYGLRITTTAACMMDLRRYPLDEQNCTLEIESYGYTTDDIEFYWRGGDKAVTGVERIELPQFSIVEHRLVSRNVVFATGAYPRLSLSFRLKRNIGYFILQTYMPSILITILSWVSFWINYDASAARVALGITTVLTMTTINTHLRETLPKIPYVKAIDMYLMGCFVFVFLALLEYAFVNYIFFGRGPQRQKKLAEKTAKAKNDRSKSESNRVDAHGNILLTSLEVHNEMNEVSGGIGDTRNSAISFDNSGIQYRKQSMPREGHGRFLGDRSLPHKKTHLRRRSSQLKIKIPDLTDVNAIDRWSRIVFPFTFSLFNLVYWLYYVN
T1 sequence (P18507 40-467 limits assumed): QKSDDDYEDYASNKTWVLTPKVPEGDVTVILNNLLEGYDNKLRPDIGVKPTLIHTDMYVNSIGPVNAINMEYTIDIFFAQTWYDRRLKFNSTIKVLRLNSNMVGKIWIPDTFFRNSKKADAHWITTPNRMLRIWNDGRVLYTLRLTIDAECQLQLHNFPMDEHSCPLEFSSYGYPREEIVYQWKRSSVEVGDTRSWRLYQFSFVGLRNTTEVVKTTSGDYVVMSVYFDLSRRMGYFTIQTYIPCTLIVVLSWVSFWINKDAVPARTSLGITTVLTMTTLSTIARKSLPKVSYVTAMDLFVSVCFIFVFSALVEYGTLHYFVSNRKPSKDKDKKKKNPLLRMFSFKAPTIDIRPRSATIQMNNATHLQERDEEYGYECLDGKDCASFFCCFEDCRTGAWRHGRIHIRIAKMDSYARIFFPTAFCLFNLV

[1] = Balance beam and tail flick 1 h after isoflurane; type: in vivo, mice; conditions: 1 h after isoflurane or vehicle
Protocol: Mice were gently held by the scruff and allowed free movement of the tail. The tip of the tail was inserted to about 1 cm depth into a beaker of water (49° C.). The latency for the mouse to remove its tail from the water was recorded and used as an indication of nociception. […] Indicators of motor coordination and mobility include the time for the mice to spontaneously cross the beam, and the number of times the hindfoot slipped off the beam. Average values of three repetitions for each mouse were reported.

[2] = Core (rectal) temperature during anesthesia; type: in vivo, mice
Protocol: Mice were placed in the air-tight acrylic glass chamber for administration of the anesthetic; a rectal probe was inserted after the mice lost their righting reflex and rectal temperature was […] to measure temperature between 5 min and 1 h. The rectal probe was not inserted prior to the 5 min mark to ensure the mice were adequately anesthetized and not discomforted.

[3] = cited from earlier work
[4] = cited from earlier work; remark: listed apart in the source
[5] = Analysis of blood gases during isoflurane anesthesia; type: in vivo, mice; conditions: for pH: n = 6
Text: A needle was carefully inserted into the heart and blood was extracted into a heparinized syringe. The collected blood was immediately placed on ice and transported to a blood gas analyzer (ABL 700 series, Radiometer, Copenhagen, Denmark).

Sequence of α5GABAARs (Q8BHJ7 32-463 limits assumed): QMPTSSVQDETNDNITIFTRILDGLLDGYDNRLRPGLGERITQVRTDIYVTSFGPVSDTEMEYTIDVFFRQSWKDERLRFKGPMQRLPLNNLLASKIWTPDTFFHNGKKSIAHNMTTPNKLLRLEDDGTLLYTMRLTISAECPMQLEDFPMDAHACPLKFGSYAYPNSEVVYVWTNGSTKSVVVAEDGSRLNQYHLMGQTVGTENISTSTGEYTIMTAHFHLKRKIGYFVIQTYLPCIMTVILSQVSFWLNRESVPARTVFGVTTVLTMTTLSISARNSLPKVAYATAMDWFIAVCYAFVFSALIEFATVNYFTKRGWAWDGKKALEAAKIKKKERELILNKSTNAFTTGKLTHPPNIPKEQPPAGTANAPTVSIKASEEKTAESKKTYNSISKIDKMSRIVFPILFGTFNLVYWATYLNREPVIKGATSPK
Sequence of α5GABAARs (P63080 26-473 partner): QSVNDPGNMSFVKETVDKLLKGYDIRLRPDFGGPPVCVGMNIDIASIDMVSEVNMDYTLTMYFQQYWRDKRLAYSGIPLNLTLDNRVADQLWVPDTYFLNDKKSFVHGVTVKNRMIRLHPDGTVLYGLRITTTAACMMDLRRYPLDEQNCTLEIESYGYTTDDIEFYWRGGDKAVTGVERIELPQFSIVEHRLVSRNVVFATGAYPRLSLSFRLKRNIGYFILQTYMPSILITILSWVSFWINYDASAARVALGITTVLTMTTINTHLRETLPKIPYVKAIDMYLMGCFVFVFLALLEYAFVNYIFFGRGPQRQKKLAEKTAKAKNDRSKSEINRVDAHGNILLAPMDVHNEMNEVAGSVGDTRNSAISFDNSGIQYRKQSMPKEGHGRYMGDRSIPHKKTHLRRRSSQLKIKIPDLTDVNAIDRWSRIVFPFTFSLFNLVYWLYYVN
Sequence of α5GABAARs (P22723 39-474): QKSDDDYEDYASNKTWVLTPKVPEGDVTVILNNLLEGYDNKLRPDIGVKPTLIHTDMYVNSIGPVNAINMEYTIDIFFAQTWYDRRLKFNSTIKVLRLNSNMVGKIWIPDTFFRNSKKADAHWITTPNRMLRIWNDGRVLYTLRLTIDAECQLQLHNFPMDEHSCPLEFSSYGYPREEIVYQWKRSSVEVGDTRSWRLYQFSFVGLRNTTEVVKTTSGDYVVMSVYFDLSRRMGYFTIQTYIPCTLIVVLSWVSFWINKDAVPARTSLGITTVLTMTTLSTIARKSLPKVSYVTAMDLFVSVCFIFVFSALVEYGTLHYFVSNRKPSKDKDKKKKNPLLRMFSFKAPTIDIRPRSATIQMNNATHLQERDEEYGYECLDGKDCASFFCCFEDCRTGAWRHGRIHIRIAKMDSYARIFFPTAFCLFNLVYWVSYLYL

## CCOC(=O)c1ncn2c1[C@@H]1CCCN1C(=O)c1cc(OC)ccc1-2 [L-655,708]
α5GABAARs; IL-1β 1 μg kg^−1 i.p. or LPS 125 μg kg^−1 i.p. 3 h before conditioning, inverse agonist co-administered
  contextual fear memory, WT mice (in words): attenuated the IL-1β-induced contextual fear memory deficits in WT mice; also recorded: restored freezing scores for contextual fear memory to control values
α5GABAARs; mouse, in vivo
  cued fear memory to a conditioned tone stimulus (in words): did not affect freezing to a conditioned tone stimulus
α5GABAA receptors
  affinity for α5GABAA receptors relative to other receptor subtypes: 50 fold
  preference for α5GABAA receptors over α2 subunit-containing GABAA receptors: 61 fold
  preference for α5GABAA receptors over α3 subunit-containing GABAA receptors: 54 fold
α5GABAA receptors; in vitro electrophysiological and biochemical studies
  preference for α5GABAA receptors over α1 subunit-containing GABAA receptors: 107 fold

## FC(F)OC(Cl)C(F)(F)F (centres unmarked) [isoflurane]
[1]
  balance beam crossing times and foot slips (in words): No differences were observed between treatment groups
  latency to tail flick (in words): No differences were detected in the latency to tail flick
[2]; 5 min after introduction into the anesthetic chamber
  rectal temperature: 37.8±0.4 °C
[2]; 1 h after induction
  rectal temperature: 37.8±0.4 °C
[3]; after 270 min of elimination following isoflurane 1.3% for 90 min
  fraction that had left the brain: 96%
[3]; humans
  elimination, initial fast component: 5 min
  elimination, slower component: 15 min
[3]; in vivo
  fraction metabolized: less than 0.2%
  fraction recovered in expired gas: ~100%
[3]; within 270 min, laboratory animals
  fraction eliminated from the brain: 97%
[4]; administered during contextual fear learning
  concentration required to impair the freezing response: 0.6%
[4]; rat, in vivo
  concentration required for memory blockade during anesthesia: 0.4%
[4]; rats
  threshold concentration that impaired memory performance during fear conditioning: 0.2%
[5]; isoflurane 1 MAC in 30% O2 for 1 h or 5 min
  hypoxia (in words): Hypoxia did not occur
[5]; isoflurane 5 min
  pCO2: 48.6 ± 2.02 mmHg
  pO2: 142 ± 16 mmHg
  pH: 7.28 ± 0.02
[5]; isoflurane 60 min
  pCO2: 54.2 ± 12.3 mmHg
  pO2: 193 ± 31 mmHg
  pH: 7.23 ± 0.08
